Test results taken from article PMC6297231 (Nature Communications, 2018).
pEC50: −log10 of the molar value. Read-outs that look alike come from different tables or passages of the source.

Tests used:
MOLP-8 cells = test: Kinetics of apoptosis and cell death markers; format: cell-based
Method: Data presented in Fig. 4b was calculated as follows:4 TMRE:(TMREnegativesample-TMREnegativeDMSO)∕(TMREnegative500nMAZD5991@24h-TMREnegativeDMSO)×100 5 Annexin V : (Annexin V positive sample) - Annexin positive DMSO∕(Annexin positive 500nM AZD5991@24h) - Annexin positive DMSO × 100 6 7AAD : (7AAD positive sample) - 7AAD positive 500nM AZD5991@0.5h∕(7AAD positive 500nM AZD5991@16h) - 7AAD positive 500nM AZD5991@0.5h × 100

MOLP8 = test: Cell viability assay; format: cell-based; conditions: Homo sapiens, MOLP-8, 24 h; MOLP8 (MM); read-out: AZD5991 24h GI50
OPM2 = test: Cell viability assay; format: cell-based; conditions: Homo sapiens, OPM-2, 24 h; OPM2 (MM); read-out: AZD5991 24h GI50
Method: (§2) Cells were plated at 3000 cells/well in 384-well white plates in corresponding cell growth media. […] Caspase-3/7 activation was subsequently determined using a Caspase-Glo 3/7 Reagent (Promega) and viability was assayed using the CellTiter-Glo Reagent (Promega) as described in manufacturer’s instructions. Dose–response curves for caspase-3/7 activation and viability were plotted and analyzed (including EC50 and GI50 determination) using GraphPad Prism.

U266B1 = test: Cell viability assay; format: cell-based; conditions: 24 h; U266B1 (MM); read-out: AZD5991 24h GI50
Method: as §2

ME1 = test: Cell viability assay; format: cell-based; conditions: ME-1, 24 h; ME1 (AML); read-out: AZD5991 24h GI50
Method: as §2

KG1 = test: Cell viability assay; format: cell-based; conditions: Homo sapiens, KG-1, 24 h; KG1 (AML); read-out: AZD5991 24h GI50
Method: as §2

Namalwa = test: Cell viability assay; format: cell-based; conditions: 24 h; Namalwa (NHL); read-out: AZD5991 24h GI50
Method: as §2

OCILY19 = test: Cell viability assay; format: cell-based; conditions: Homo sapiens, OCI-LY19, 24 h; OCILY19 (NHL); read-out: AZD5991 24h GI50
Method: as §2

OCILY3 = test: Cell viability assay; format: cell-based; conditions: Homo sapiens, OCI-Ly3, 24 h; OCILY3 (NHL); read-out: AZD5991 24h GI50
Method: as §2

OCILY7 = test: Cell viability assay; format: cell-based; conditions: Homo sapiens, OCI-Ly7, 24 h; OCILY7 (NHL); read-out: AZD5991 24h GI50
Method: as §2

Sudhl16 = test: Cell viability assay; format: cell-based; conditions: Homo sapiens, SU-DHL-16, 24 h; Sudhl16 (NHL); read-out: AZD5991 24h GI50
Method: as §2

H1703 = test: Cell viability assay; format: cell-based; conditions: Homo sapiens, NCI-H1703, 24 h; H1703 (Lung); read-out: AZD5991 24h GI50
Method: as §2

H1734 = test: Cell viability assay; format: cell-based; conditions: Homo sapiens, NCI-H1734, 24 h; H1734 (Lung); read-out: AZD5991 24h GI50
Method: as §2

H322 = test: Cell viability assay; format: cell-based; conditions: NCI-H322, 24 h; H322 (Lung); read-out: AZD5991 24h GI50
Method: as §2

HCC827 = test: Cell viability assay; format: cell-based; conditions: Homo sapiens, 24 h; HCC827 (Lung); read-out: AZD5991 24h GI50
Method: as §2

A2058 = test: Cell viability assay; format: cell-based; conditions: Homo sapiens, 24 h; A2058 (Skin); read-out: AZD5991 24h GI50
Method: as §2

WM2664 [1] = test: Cell viability assay; format: cell-based; conditions: Homo sapiens, WM 266-4, 24 h; WM2664 (Skin); read-out: AZD5991 24h GI50
Method: as §2

DLD1 = test: Cell viability assay; format: cell-based; conditions: Homo sapiens, DLD-1, 24 h; DLD1 (GI); read-out: AZD5991 24h GI50
Method: as §2

OE21 = test: Cell viability assay; format: cell-based; conditions: 24 h; OE21 (Others); read-out: AZD5991 24h GI50
Method: as §2

OCIAML5 = test: Caspase-3/7 activation assay; format: cell-based; conditions: Homo sapiens, OCI-AML-5, 6 h
Method: as §2

A253 = test: cells; conditions: Homo sapiens, A253, 6 h, read-out: AZD5991 6h EC50
Method in brief: (§1)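 Cells were seeded at 3000 cells/well in their respective growth media and treated with compound. Caspase-3/7 activation was read by Caspase-Glo 3/7 luminescence and viability by CellTiter-Glo; EC50 and GI50 came from dose–response curves. Caspase activation is expressed relative to a cell-kill control set at 100%.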

BT20 = test: cells; conditions: Homo sapiens, BT-20, 6 h, read-out: AZD5991 6h EC50
Method in brief: as §1

EOL1 = test: cells; conditions: Homo sapiens, EOL1, 6 h, read-out: AZD5991 6h EC50
Method in brief: as §1

MCF7 = test: cells; conditions: Homo sapiens, MCF7, 6 h, read-out: AZD5991 6h EC50
Method in brief: as §1

MDAMB231 = test: cells; conditions: Homo sapiens, MDA-MB-231, 6 h, read-out: AZD5991 6h EC50
Method in brief: as §1

MWCL1 = test: cells; conditions: 6 h, read-out: AZD5991 6h EC50
Method in brief: as §1

WM2664 [2] = test: cells; conditions: Homo sapiens, WM 266-4, 6 h, read-out: AZD5991 6h EC50
Method in brief: as §1

[3] = tested on: Eμ-Myc lymphoma cells stably expressing human Bcl-xL; test: Apoptosis induction in Eμ-Myc lymphoma cells; conditions: overexpression of Bcl-xL, 24 h
From the text: The retroviral plasmids to express human Bcl-2 family members in murine Eμ-Myc lymphoma cells are MSCV-hMCL-1-GFP, MSCV-hBCL-2-GFP, MSCV-hBCL-XL-GFP, MSCV-hBFL-1/A1-GFP, and MSCV-hBCL-w-GFP. To produce viruses, constructs of interest were co-transfected into HEK293T cells with the plasmid encoding the packaging viruses (p-CL-AMPHO provided by Phillip Darcy from Peter MacCallum Cancer Center, Melbourne, Australia) using standard calcium phosphate transient transfection technique. The retroviruses were harvested, filtered and used to infect target cells following standard procedures.
Samples were then centrifuged, washed twice with PBS and analyzed by flow cytometry in a BD LSRFortessa. FACSDiva software was used for data collection and FlowJo software for data analysis.

Cc1c2c(nn1C)CSCc1cc(n(C)n1)CSc1cc(c3ccccc3c1)OCCCc1c(C(=O)O)n(C)c3c-2c(Cl)ccc13 (atropisomer, axis not shown; (Ra)) [(Ra)-7]
time to loss of ATP and disruption of the cell membrane (MOLP-8 cells): less than 24 h | time to maximum increase in MOMP, caspase-3/7 activation and phosphatidyl-serine exposure (MOLP-8 cells; MOLP-8 cells, 500 nM): less than 2 h | GI50 (MOLP8): 52 nM | GI50 (OPM2): 57 nM | GI50 (U266B1): > 30000 nM | GI50 (ME1): 220 nM | GI50 (KG1): 291 nM | GI50 (Namalwa): 39 nM | GI50 (OCILY19): 140 nM | GI50 (OCILY3): 6190 nM | GI50 (OCILY7): 24 nM | GI50 (Sudhl16): 119 nM | GI50 (H1703): 346 nM | GI50 (H1734): 13800 nM | GI50 (H322): 17400 nM | GI50 (HCC827): 20100 nM | GI50 (A2058): 765 nM | GI50 (WM2664 [1]): 13200 nM | GI50 (DLD1): 15100 nM | GI50 (OE21): > 30000 nM | pEC50 (OCIAML5; read-out: 6h caspase EC50, OCIAML5, single agent): < 6.48 | pEC50 (OCIAML5; read-out: AZD5991 6h EC50, OCIAML5 (AML), caspase 3/7 activation): < 4.52 | pEC50 (A253): < 4.52 | pEC50 (BT20): < 4.52 | pEC50 (EOL1): 7.89 | pEC50 (MCF7): 6.50 | pEC50 (MDAMB231): < 4.52 | pEC50 (MWCL1): 4.56 | pEC50 (WM2664 [2]): < 4.52 | apoptosis-inducing activity [3]: blocked
